Reference: ChEMBL document CHEMBL1275466, “Diversity of penicillin binding proteins among clinical Streptococcus pneumoniae strains from Portugal” (2008)
In brackets after ≈: the same amount, converted by molar mass.

Assays:
Format in all cases: functional
[1] = test system: Streptococcus pneumoniae; experiment: Antibacterial activity against Streptococcus pneumoniae serotype 9V URA4929 harboring mutant PBP1A
[2] = test system: Streptococcus pneumoniae; experiment: Antibacterial activity against penicillin-resistant Streptococcus pneumoniae serotype 14 URA5128 harboring mutant PBP2B PBP2X and PBP1A
[3] = test system: Streptococcus pneumoniae; experiment: Antibacterial activity against penicillin-resistant Streptococcus pneumoniae serotype 14 URA4731 harboring mutant PBP2B PBP2X and PBP1A
[4] = test system: Streptococcus pneumoniae; experiment: Antibacterial activity against multidrug resistant Streptococcus pneumoniae serotype 6B URA4566 harboring mutant PBP2B PBP2X and PBP1A
[5] = test system: Streptococcus pneumoniae; experiment: Antibacterial activity against penicillin-cefotaxime- ceftriaxone-resistant Streptococcus pneumoniae URA6056 harboring mutant PBP2B PBP2X and PBP1A
[6] = test system: Streptococcus pneumoniae; experiment: Antibacterial activity against multidrug resistant Streptococcus pneumoniae serotype 24F URA5450 harboring mutant PBP2B PBP2X and PBP1A
[7] = test system: Streptococcus pneumoniae; experiment: Antibacterial activity against penicillin-cefotaxime- ceftriaxone-resistant Streptococcus pneumoniae serotype 14 URA3043 harboring mutant PBP2B PBP2X and PBP1A
[8] = test system: Streptococcus pneumoniae; experiment: Antibacterial activity against Streptococcus pneumoniae serotype 22 URA2542 harboring PBP2B harboring mutant PBP2B PBP2X and PBP1A
[9] = test system: Streptococcus pneumoniae; experiment: Antibacterial activity against penicillin-resistant Streptococcus pneumoniae serotype 23F URA5391 harboring mutant PBP2B PBP2X and PBP1A
[10] = test system: Streptococcus pneumoniae; experiment: Antibacterial activity against multidrug resistant Streptococcus pneumoniae serotype 6B ATCC 700670 harboring mutant PBP2B PBP2X and PBP1A
[11] = test system: Streptococcus pneumoniae; experiment: Antibacterial activity against multidrug resistant Streptococcus pneumoniae serotype 19A URA5805 harboring mutant PBP2B PBP2X and PBP1A
[12] = test system: Streptococcus pneumoniae; experiment: Antibacterial activity against Streptococcus pneumoniae R6
[13] = test system: Streptococcus pneumoniae; experiment: Antibacterial activity against multidrug resistant Streptococcus pneumoniae serotype 19F URA3699 harboring mutant PBP2B PBP2X and PBP1A
[14] = test system: Streptococcus pneumoniae; experiment: Antibacterial activity against multidrug resistant Streptococcus pneumoniae serotype 19A ATCC 700673 harboring mutant PBP2B PBP2X and PBP1A
[15] = test system: Streptococcus pneumoniae; experiment: Antibacterial activity against Streptococcus pneumoniae serotype 3 URA3537 harboring mutant PBP1A
[16] = test system: Streptococcus pneumoniae; experiment: Antibacterial activity against Streptococcus pneumoniae URA2543 harboring mutant PBP1A
[17] = test system: Streptococcus pneumoniae; experiment: Antibacterial activity against Streptococcus pneumoniae serotype 19F URA4087 harboring mutant PBP2X and PBP1A
[18] = test system: Streptococcus pneumoniae; experiment: Antibacterial activity against tetracycline- erythromycin- clindamycin-resistant Streptococcus pneumoniae serotype 6B URA4376 harboring mutant PBP1A
[19] = test system: Streptococcus pneumoniae; experiment: Antibacterial activity against multidrug resistant Streptococcus pneumoniae serotype 23F ATCC 51916 harboring mutant PBP2B PBP2X and PBP1A
[20] = test system: Streptococcus pneumoniae; experiment: Antibacterial activity against penicillin-resistant Streptococcus pneumoniae serotype 19A URA3635 harboring mutant PBP2B PBP2X and PBP1A
[21] = test system: Streptococcus pneumoniae; experiment: Antibacterial activity against penicillin-cefotaxime- ceftriaxone-resistant Streptococcus pneumoniae serotype 14 URA3543 harboring mutant PBP2B PBP2X and PBP1A
[22] = test system: Streptococcus pneumoniae; experiment: Antibacterial activity against multidrug resistant Streptococcus pneumoniae serotype 14 URA4203 harboring mutant PBP2B PBP2X and PBP1A
[23] = test system: Streptococcus pneumoniae; experiment: Antibacterial activity against Streptococcus pneumoniae serotype 4 ATCC BAA-334 harboring mutant PBP1A
[24] = test system: Streptococcus pneumoniae; experiment: Antibacterial activity against erythromycin-resistant Streptococcus pneumoniae serotype 14 URA4933 harboring mutant PBP2X and PBP1A
[25] = test system: Streptococcus pneumoniae; experiment: Antibacterial activity against multidrug resistant Streptococcus pneumoniae serotype 23 URA3558 harboring mutant PBP2X and PBP1A
[26] = test system: Streptococcus pneumoniae; experiment: Antibacterial activity against multidrug resistant Streptococcus pneumoniae serotype 15A URA5779 harboring mutant PBP2B PBP2X and PBP1A

Structure (SMILES): CC1(C)S[C@@H]2[C@H](NC(=O)Cc3ccccc3)C(=O)N2[C@H]1C(=O)O [PENICILLIN G]
- MIC [1]: 0.0125 µg/mL (≈ 0.0374 µM)
- MIC [2]: 0.5 µg/mL (≈ 1.5 µM)
- MIC [3]: 0.1 µg/mL (≈ 0.299 µM)
- MIC [4]: 0.1 µg/mL (≈ 0.299 µM)
- MIC [5]: 3.2 µg/mL (≈ 9.57 µM)
- MIC [6]: 0.5 µg/mL (≈ 1.5 µM)
- MIC [7]: 2 µg/mL (≈ 5.98 µM)
- MIC [8]: 0.05 µg/mL (≈ 0.15 µM)
- MIC [9]: 0.1 µg/mL (≈ 0.299 µM)
- MIC [10]: 2 µg/mL (≈ 5.98 µM)
- MIC [11]: 1.6 µg/mL (≈ 4.78 µM)
- MIC [12]: 0.0125 µg/mL (≈ 0.0374 µM)
- MIC [13]: 0.5 µg/mL (≈ 1.5 µM)
- MIC [14]: 2 µg/mL (≈ 5.98 µM)
- MIC [15]: 0.0125 µg/mL (≈ 0.0374 µM)
- MIC [16]: 0.025 µg/mL (≈ 0.0748 µM)
- MIC [17]: 0.025 µg/mL (≈ 0.0748 µM)
- MIC [18]: 0.0125 µg/mL (≈ 0.0374 µM)
- MIC [19]: 0.1 µg/mL (≈ 0.299 µM)
- MIC [20]: 0.1 µg/mL (≈ 0.299 µM)
- MIC [21]: 2 µg/mL (≈ 5.98 µM)
- MIC [22]: 1.6 µg/mL (≈ 4.78 µM)
- MIC [23]: 0.0125 µg/mL (≈ 0.0374 µM)
- MIC [24]: 0.0125 µg/mL (≈ 0.0374 µM)
- MIC [25]: 0.2 µg/mL (≈ 0.598 µM)
- MIC [26]: 0.1 µg/mL (≈ 0.299 µM)
